{"source": "patent US7695426B2", "about": "“Methods for enhancing viability” (Biological Resources Pty Ltd, priority 2003, dated 2010)", "key": {"[1]": {"system": "mouse embryos", "assay": "Combined treatment of IGF-II and PFT-α on embryo development in vitro", "type": "cell-based", "details": "IVF zygotes cultured 96 h, 10 ng/ml IGF-II, 1 μM PFT-α, or both; for Cells/blastocyst: control 23 ± 4; for % blastocyst: control 31", "procedure": "The IGF-II used was human recombinant insulin-like growth factor-II (expressed in E. Coli) (Sigma Chemical Co.), reconstituted with a minimal volume of 0.1M acetic acid and immediately diluted with modified-HTF to a concentration of 50 μg/ml. Aliquots were frozen at −70° C. Upon thawing, aliquots were serially diluted with modified-HTF.\nZygotes produced by IVF from F1 crosses were prepared and cultured as described above, with 1 embryo per […] drop of media. Zygotes were cultured for 96 h in modified HTFM medium individually in 10 μl drops. The proportion of embryos developing to morphologically normal blastocysts, the number of cells in each blastocyst and the number of apoptotic cells per blastocyst were assessed in media containing 10 ng/ml IGF-II, 1 μM PFT-α, or IGF-II+PFT-α."}, "[2]": {"system": "mouse embryos", "assay": "Co-treatment of embryos in vitro with PAF and PFT-α", "type": "cell-based", "details": "zygotes cultured 96 h; 10 nM PAF, 10 μM PFT-α or both"}, "[3]": {"system": "2-cell embryos", "assay": "Intracellular calcium response of embryos to exogenous PAF", "type": "cell-based, mouse", "details": "IVF embryos in comparison to fresh and ISF embryos", "procedure": "Mammalian embryos express a receptor for PAF, and activation of this receptor elicits a transient increase in the embryo's intracellular calcium concentration (Emerson et al., 2000, Journal of Biological Chemistry 275, 21905-21913; Lu et al., 2003, Biology of Reproduction 69, 106-116).\nMouse embryos were incubated with exogenous PAF and the intracellular Ca^2+ concentration was determined as described by Emerson et al. (2000). Embryos tested were: (i) those fertilized in the reproductive tract and collected fresh from the reproductive tract (fresh); (ii) embryos produced by IVF and cultured in vitro (IVF); and (iii) embryos fertilized in the reproductive tract and cultured in vitro (ISF). […] This reduced signaling correlated with poor development of the embryos in vitro."}, "[4]": {"system": "bovine sperm", "assay": "Treatment of bovine sperm with PFT-α before insemination, blastocyst formation", "type": "cell-based", "details": "bovine sperm incubated 1 h with 0.3-3 μM PFT-α before insemination; Day 7; compared to control", "procedure": "All embryo manipulations were performed at 39° C. except for oocyte harvesting and activation which was performed at room temperature. All procedures were performed in 4-well Nunc dishes in Tissue Culture Medium 199 (TCM-199) supplemented with HEPES (TCM-H TCM-199; Gibco™ BRL/Life Technologies, Melbourne, Victoria, Australia) without mineral oil overlay, unless otherwise indicated.\nBovine ovaries collected from 2 different local slaughterhouse, transported at 30-35° C. to the laboratory and washed on 39° C. physiologic saline (0.9% NaCl; Baxter Healthcare Pty., Ltd., NSW, Australia). Ovarian antral follicles (2-8 mm) were aspirated using an 18-gauge needle and collected into TCM-H with 30 IU ml^−1 heparin (Pharmacia & Upjohn Pty., Ltd., Perth, Wash., Australia) and 2% gamma radiated fetal bovine serum (FBS; JRH Biosciences Pty., Ltd., Melbourne, Victoria, Australia). Cumulus oocyte complexes (COCs) showing an even cytoplasm and surrounded by at least three layers of compact cumulus cells were collected from the follicular fluid. […]\nFrozen/thawed semen from an elite bull was placed on a Percoll gradient and centrifuged at 600×g for 20 minutes. The top layers were removed and the sperm concentration and motility of the pellet determined. […]\nThe proportion of blastocysts were determined on Day 7 (Day 0=fertilization). […]"}, "[5]": {"system": "mouse embryos", "assay": "Culture of mouse zygotes (IVF or ISF) with PFT-α as media supplement", "type": "cell-based", "procedure": "(§1) Mouse IVF: Females superovulated by 5 IU pregnant mare serum gonadotrophin followed 48 h later by 5 IU human chorionic gonadotrophin. Oocytes were collected 13-15 h after hCG and washed. Epididymal sperm collected from the epididymides of male mice (14-35 weeks old) of proven fertility is immediately placed into 1 ml of medium. Sperm were allowed to disperse for 10 min at 37° C. and were then added to the oocytes at 0.1×10^6/ml. Fertilisation was performed in a final volume of 1 ml of medium. Oocytes and sperm were cultured together for 5 h at 37° C. in 5% CO2 in air. The oocytes were then retrieved, washed in Hepes-buffered HTF and their fertilisation status assessed by microscopic detection of pronuclei and polar bodies. Fertilised oocytes were transferred to drops of modified HTF medium under mineral oil and their development status assessed each 24 h.\nA recently developed selective inhibitor of p53, pifithrin-α (PFTα [2-(2-imino-4,5,6,7-tetrahydrobenzothiazol-3-yl)-1-p-tolylethanone], Sigma-Aldrich), is a small molecule that reversibly blocks p53-dependent transcriptional activation and apoptosis (Komarov et al., 1999, Science 285, 1733-1737). PFT-α was prepared initially by solubilising to a concentration of 10 mM in dimethylsolfoxide and diluted to working concentrations.\nZygotes were produced by either fertilization in vitro (IVF) or fertilisation in situ (ISF) and cultured for 96 hours in modified HTFM medium individually in […] drops. PFT-α was added as a media supplement over the dose range […]. The proportion of embryos developing to the blastocyst stage (FIG. 3A), the number of cells per normal blastocyst and the proportion of cells undergoing apoptosis (FIG. 3B), were assessed."}, "[6]": {"system": "sperm and oocytes", "assay": "Treatment of mouse gametes with PFT-α during capacitation and fertilisation in vitro", "type": "cell-based", "procedure": "as §1\nPFT-α preparation, IVF and embryo culture was as previously described. The study used F1 (C57Bl6j×CBAj) males and females. PFT-α was added to sperm during its capacitation and during the process of fertilisation in vitro.\n4-5 h after the addition of sperm to oocytes, the oocytes were washed free of sperm and PFT-α. They were examined for the presence of 2 pronuclei as evidence of successful fertilisation. Successfully fertilised oocytes were placed in culture in 10 μL of modified HTF media, 1 zygote per 10 μL drop. They were culture for 120 h and the proportion forming morphologically normal blastocysts were recorded. The blastocysts were fixed in 2% formaldehyde and stained with 5 μG Hoechst stain/ml. […]\nThe effect of dose of PFT-A on the proportion of oocytes fertilised, the proportion of zygotes that developed to morphological blastocyst and the number of cells in each blastocysts were recorded and are shown in FIGS. 4A, B and C respectively. The effect of PFT-A dose was assessed using the SPSS statistical package. The fertilisation rate and development rate were assessed using binary logistic regression analysis while cell numbers were assessed by univariate analysis using the general linear model."}, "[7]": {"system": "p53 mRNA", "assay": "RT-PCR of p53 mRNA in embryos incubated in α-amanitin", "type": "cell-based, mouse", "source_text": "RT-PCR was used to compare the expression of p53 mRNA in fresh p53+/+ mouse embryos (embryos fertilised and grown in the reproductive tract) and IVF mouse embryos. For IVF embryos, the model uses a graded range of stress induced by IVF and culture under conditions of increasing growth factor deprivation. Primers were designed (5′-GGAGTCTTCCAGTGTGATGAT, 3′-GGG ACA GCC MG TCT GTT ATG) that successfully produced an RT-PCR product of the correct size (429 bp) and sequence (SUPAMAC) for the p53 gene. Groups of 5 embryos, oocytes or sperm were pooled. mRNA was extracted and RT-PCR performed.\np53 product was detected in oocytes, zygotes, 8-cell, morulae and blastocyst stage mouse embryos collected from the reproductive tract but not in epididymal sperm. In 2-cell embryos detection was variable. […] Quantitative RT-PCR of p53 was performed to compare expression of p53 mRNA in fresh and IVF embryos. Equivalent levels of RNA were found in the oocyte, zygote, morulae and blastocyst of fresh embryos; the levels were 50-70% lower in late 2-cell embryos than in other development stages (data not shown)."}, "[8]": {"details": "gametes treated with PFT-α, zygotes cultured 120 h, P<0.05"}}, "data": [{"compound": "IGF-II: human recombinant insulin-like growth factor-II (expressed in E. Coli), Sigma Chemical Co.", "values": [{"measurement": "Cells/blastocyst", "setting": "[1]", "value": "29 ± 2"}, {"measurement": "% blastocyst", "setting": "[1]", "value": 42, "unit": "%"}]}, {"compound": "1 hexadecyl/octadecyl-2-acetyl-sn-glyceryl-3-phosphocholine [PAF]", "values": [{"measurement": "embryo viability as proportion of embryos that developed to the blastocyst stage", "setting": "[2]", "value": "increase in embryo viability"}, {"measurement": "proportion of 2-cell IVF embryos that responded to exogenous PAF (intracellular calcium)", "setting": "[3]", "value": "substantially reduced"}]}, {"compound": "Cc1ccc(C(=O)Cn2c3c(sc2=N)CCCC3)cc1", "note": "[PFT-α, 2-(2-imino-4,5,6,7-tetrahydrobenzothiazol-3-yl)-1-p-tolylethanone]", "values": [{"measurement": "embryo viability as proportion of embryos that developed to the blastocyst stage", "setting": "[2]", "value": "increase in embryo viability"}, {"measurement": "proportion of resulting embryos that developed to morphological blastocysts", "setting": "[4]", "value": "significant positive effect"}, {"measurement": "proportion of IVF embryos that developed to the blastocyst stage", "setting": "[5]; IVF zygotes cultured 96 h individually, PFT-α dose range 0.1-20 μM", "value": "significant quadratic effect"}, {"measurement": "embryo survival", "setting": "[5]; between 0.1 and 20 μM added to embryos in culture", "value": "significant effect on increasing embryo survival"}, {"measurement": "number of cells per normal blastocyst", "setting": "[5]; both ISF and IVF zygotes, cultured 96 h, PFT-α dose range 0.1-20 μM", "value": "significant improvement"}, {"measurement": "number of cells undergoing apoptosis", "setting": "[5]; both ISF and IVF zygotes, cultured 96 h, PFT-α dose range 0.1-20 M (so in the source)", "value": "significant decrease"}, {"measurement": "Cells/blastocyst", "setting": "[1]", "value": "32 ± 4"}, {"measurement": "% blastocyst", "setting": "[1]", "value": 44, "unit": "%"}, {"measurement": "fertilisation rate (proportion of oocytes fertilised)", "setting": "[6]; PFT-α present during sperm capacitation and IVF, P<0.01", "value": "dose-dependent increase"}, {"measurement": "mean number of cells present in each embryo (blastocyst)", "setting": "[6]; [8]", "value": "dose-dependent significant increase"}, {"measurement": "proportion of zygotes that developed to the blastocyst stage", "setting": "[6]; [8]", "value": "further dose-dependent increase"}]}, {"compound": "CC[C@H](C)[C@@H]1NC(=O)CNC(=O)[C@@H]2Cc3c([nH]c4cc(O)ccc34)[S+]([O-])C[C@@H](NC(=O)CNC1=O)C(=O)N[C@@H](CC(N)=O)C(=O)N1C[C@H](O)C[C@H]1C(=O)N[C@@H]([C@@H](C)[C@@H](O)CO)C(=O)N2", "note": "(stereo in doubt) [α-amanitin]", "values": [{"measurement": "p53 mRNA in embryos after incubation from the 2-cell stage", "setting": "[7]; 2-cell embryos incubated in α-amanitin, after 24 h", "value": "p53 mRNA negative"}, {"measurement": "qualitative expression of p53 RNA in zygotes", "setting": "[7]; zygotes incubated in α-amanitin", "value": "no effect"}]}]}
